Tests used:
[1] = molecular target: Neuronal acetylcholine receptor subunit alpha-7 (Rattus norvegicus, UniProt Q05941); assay: Displacement of [125I]alpha-BTX from alpha-7 nAChR in rat hippocampus membrane; type: cell membranes
Cytochrome P450 2D6 = Cytochrome P450 2D6 (Homo sapiens, UniProt P10635); assay: Inhibition of CYP2D6; type: ADME
[2] = molecular target: Neuronal acetylcholine receptor subunit alpha-7 (Homo sapiens) (UniProt P36544); assay: Activity at alpha-7 nAChR assessed as stimulation of relative inward current in cultured hippocampal neurons relative to choline; type: functional, tissue-based; settings: Hippocampus, filed as agonist
Neuronal acetylcholine receptor subunit alpha-7 (Homo sapiens), sequence (P36544 whole entry): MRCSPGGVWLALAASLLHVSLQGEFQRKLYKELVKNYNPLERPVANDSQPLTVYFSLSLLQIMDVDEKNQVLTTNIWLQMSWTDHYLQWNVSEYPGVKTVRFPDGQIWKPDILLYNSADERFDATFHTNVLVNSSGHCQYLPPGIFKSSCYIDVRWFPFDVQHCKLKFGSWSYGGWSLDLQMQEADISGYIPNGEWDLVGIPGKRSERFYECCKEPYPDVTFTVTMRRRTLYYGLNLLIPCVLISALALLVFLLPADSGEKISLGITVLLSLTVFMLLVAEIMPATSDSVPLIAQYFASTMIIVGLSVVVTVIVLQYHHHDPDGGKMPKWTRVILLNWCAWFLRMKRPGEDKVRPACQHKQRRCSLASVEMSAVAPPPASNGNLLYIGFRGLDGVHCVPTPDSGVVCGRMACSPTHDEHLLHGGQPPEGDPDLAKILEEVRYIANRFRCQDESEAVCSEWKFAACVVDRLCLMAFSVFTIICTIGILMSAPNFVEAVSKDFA

Neuronal acetylcholine receptor subunit alpha-7, sequence (Q05941 whole entry): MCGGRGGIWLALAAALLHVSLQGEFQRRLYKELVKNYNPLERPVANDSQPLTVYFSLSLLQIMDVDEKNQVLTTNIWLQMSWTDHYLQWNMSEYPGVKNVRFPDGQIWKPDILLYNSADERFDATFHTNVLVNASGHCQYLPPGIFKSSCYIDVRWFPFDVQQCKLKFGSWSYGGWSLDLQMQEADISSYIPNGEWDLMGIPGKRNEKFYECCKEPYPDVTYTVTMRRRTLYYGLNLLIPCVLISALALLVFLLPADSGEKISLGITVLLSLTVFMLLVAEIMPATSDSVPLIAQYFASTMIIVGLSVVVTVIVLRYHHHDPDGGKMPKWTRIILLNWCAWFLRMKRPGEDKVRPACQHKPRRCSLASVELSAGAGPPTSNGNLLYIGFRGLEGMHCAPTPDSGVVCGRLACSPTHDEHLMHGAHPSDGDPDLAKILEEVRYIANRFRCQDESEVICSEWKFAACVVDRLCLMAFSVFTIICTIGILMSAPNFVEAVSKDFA
Cytochrome P450 2D6, sequence (P10635 whole entry): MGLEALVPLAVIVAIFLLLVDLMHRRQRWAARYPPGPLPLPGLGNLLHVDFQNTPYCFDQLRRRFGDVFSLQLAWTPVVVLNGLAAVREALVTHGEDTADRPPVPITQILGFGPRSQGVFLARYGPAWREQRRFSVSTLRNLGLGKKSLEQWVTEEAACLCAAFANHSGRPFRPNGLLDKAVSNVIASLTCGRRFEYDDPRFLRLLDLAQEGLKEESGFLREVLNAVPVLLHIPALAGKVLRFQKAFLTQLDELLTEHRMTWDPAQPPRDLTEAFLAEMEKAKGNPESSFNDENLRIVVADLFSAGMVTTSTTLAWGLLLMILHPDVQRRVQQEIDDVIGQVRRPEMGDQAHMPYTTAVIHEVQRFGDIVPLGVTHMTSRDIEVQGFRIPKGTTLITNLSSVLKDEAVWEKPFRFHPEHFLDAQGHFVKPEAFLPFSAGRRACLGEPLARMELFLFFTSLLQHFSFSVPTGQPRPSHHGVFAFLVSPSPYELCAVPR

Structure (SMILES) | Ki [1] [µM] | IC50 (Cytochrome P450 2D6) [µM] | Activity [2] | IC50 [1] [µM]
O=C1O[C@@]2(CN3CCC2CC3)CN1c1ccc2c(c1)CCC2 | 0.2 | – | – | –
O=C1O[C@@]2(CN3CCC2CC3)CN1c1ccc(Br)s1 | 0.004 | 9 | – | –
O=C1O[C@]2(CN3CCC2CC3)CN1c1ccc2c(c1)OCCO2 | 0.175 | – | – | –
O=C1O[C@]2(CN3CCC2CC3)CN1c1ccc2c(c1)CCO2 | 0.085 | – | – | –
O=C1O[C@@]2(CN3CCC2CC3)CN1c1ccc2occ(Br)c2c1 | 0.004 | > 30 | – | –
O=C1O[C@]2(CN3CCC2CC3)CN1c1ccc2c(c1)OCO2 | 0.037 | > 30 | Agonist | –
O=C1OC2(CN3CCC2CC3)CN1c1ccc2ncccc2c1 (single isomer, unassigned) | – | – | – | > 1
Cn1c(=O)oc2cc(N3CC4(CN5CCC4CC5)OC3=O)ccc21 (single isomer, unassigned) | – | – | – | > 1
O=C1O[C@]2(CN3CCC2CC3)CN1c1ccc2sc(Cl)cc2c1 | 0.034 | > 30 | – | –
Cc1cc2cc(N3C[C@@]4(CN5CCC4CC5)OC3=O)ccc2o1 | 0.038 | > 30 | – | –
O=C1O[C@]2(CN3CCC2CC3)CN1c1ccc2ccoc2c1 | 0.05 | – | – | –
CCc1cc2cc(N3C[C@@]4(CN5CCC4CC5)OC3=O)ccc2s1 | 0.135 | > 30 | – | –
